Data on five molecules can be found in article PMC9737137, “The Mitochondrial Protein MitoNEET as a Probe for the Allostery of Glutamate Dehydrogenase” (Molecules, 2022).

Assay [1] addresses T1, glutamate dehydrogenase (GDH) (Bos taurus, UniProt P00366).
T1 construct: gene GLUD1
Description: GDH kinetics, NAD(P)H formation at […] nm; percent activation with NADP. It is filed as biochemical.

Assay [2] concerns the target T1, glutamate dehydrogenase (GDH). Description: GDH kinetics, NAD(P)H formation at […] nm; fraction of activity with NAD added first. Type of assay: biochemical.
Assay [3] has the same target. Description: GDH kinetics, NAD(P)H formation at […] nm; fraction of activity (Figure 1C). Type of assay: biochemical.
Assay [4] shares this target. Description: GDH kinetics, NAD(P)H formation at […] nm; percent activation (Figure 4B). Type of assay: biochemical.
The next assay concerns the target T2, mitoNEET (Homo sapiens, UniProt Q9NZ45).
T2 construct: gene CISD1
T2 sequence (Q9NZ45 2-108): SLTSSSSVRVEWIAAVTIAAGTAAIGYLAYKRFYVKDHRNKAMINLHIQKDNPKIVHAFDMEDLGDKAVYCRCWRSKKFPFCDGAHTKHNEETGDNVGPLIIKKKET
Description: radioligand competition assay (SPA nickel beads). It is filed as binding. (In general: Loss of bound radioactivity is the signal in a displacement assay; it reports binding, not function.)

The target of assay [5] is T1, glutamate dehydrogenase (GDH). Description: GDH kinetics, NAD(P)H formation at […] nm; fraction of activity. Type of assay: biochemical.

T1 sequence (P00366 58-558, one chain of several): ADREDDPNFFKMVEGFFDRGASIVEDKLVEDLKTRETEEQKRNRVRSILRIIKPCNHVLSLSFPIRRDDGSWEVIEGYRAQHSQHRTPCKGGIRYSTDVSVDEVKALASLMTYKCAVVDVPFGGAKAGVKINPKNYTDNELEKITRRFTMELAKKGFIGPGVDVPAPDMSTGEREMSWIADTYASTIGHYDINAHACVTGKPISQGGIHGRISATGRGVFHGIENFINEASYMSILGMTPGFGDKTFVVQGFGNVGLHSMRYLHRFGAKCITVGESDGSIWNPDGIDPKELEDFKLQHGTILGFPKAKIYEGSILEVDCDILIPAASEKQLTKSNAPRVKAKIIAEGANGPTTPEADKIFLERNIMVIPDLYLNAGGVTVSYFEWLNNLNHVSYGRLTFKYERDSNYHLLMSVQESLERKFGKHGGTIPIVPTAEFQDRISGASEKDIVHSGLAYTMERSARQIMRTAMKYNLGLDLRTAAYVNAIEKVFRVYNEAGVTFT

Consider `Nc1ncnc2c1ncn2[C@@H]1O[C@H](COP(=O)(O)OP(=O)(O)O)[C@@H](O)[C@H]1O` [ADP], for which, in assay [1], the “% activation” value was 67 % activation.
For `O=C(O[C@@H]1Cc2c(O)cc(O)cc2O[C@@H]1c1cc(O)c(O)c(O)c1)c1cc(O)c(O)c(O)c1` [EGCG], the “GDH kinetics, NAD(P)H formation at 340 nm; fraction of activity with NAD added f” value in assay [2] was 0.35 ± 0.02 fraction of activity.
As for `Nc1nc2c(ncn2[C@@H]2O[C@H](COP(=O)(O)OP(=O)(O)OP(=O)(O)O)[C@@H](O)[C@H]2O)c(=O)[nH]1` [GTP], in assay [3], the “GDH kinetics, NAD(P)H formation at 340 nm; fraction of activity (Figure 1C)” value is “under only one assay condition the rescue of GDH activity from GTP inhibition by mitoNEET could be observed”.
On to `CC(C)C[C@H](N)C(=O)O` [leucine], for which the “GDH kinetics, NAD(P)H formation at 340 nm; percent activation (Figure 4B)” value in assay [4] was “addition of mitoNEET after the addition of leucine gave no impact in percent activation over the addition of leucine alone”.
In the case of `CCCCCCCCCCCCCCCC(=O)SCCNC(=O)CCNC(=O)[C@H](O)C(C)(C)COP(=O)(O)OP(=O)(O)OC[C@H]1O[C@@H](n2cnc3c(N)ncnc32)[C@H](O)[C@@H]1OP(=O)(O)O` [palmitoyl-CoA], on mitoNEET, the IC50 (usually the midpoint of a concentration-inhibition curve) was 0.304 µM. In addition, in assay [5], the “GDH kinetics, NAD(P)H formation at 340 nm; fraction of activity” value is on record as 0.44 ± 0.04 fraction of activity.
